# Assay: gradient 5% acetonitrile 3 min, to 50% in 2 min, to 85% in 15 min, held 3 min, 100 µL/min
# Conditions: column: Zorbax Extend-C18 2.1 x 50 mm; eluents: water / acetonitrile, 0.1% formic acid
# Summary of the method: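 Data were gathered over 3 months by HPLC coupled to a quadrupole time-of-flight mass spectrometer, operated in positive and negative ionization mode. Mixtures of ~100 pure standards ran on a Zorbax Extend-C18 column (2.1 × 50 mm, 1.8 μm) at 100 μL/min, with water and acetonitrile each containing 0.1% formic acid and dead and dwell volumes of 40 μL and 900 μL. Retention time was read from adduct peaks picked by computer and checked manually.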
row,SMILES,RP-LC retention time [s]
1,Fc1cc(F)cc(-c2nnc(Cc3nc(-c4cccnc4)no3)o2)c1,805
2,CC1CCN(c2nnc(-n3cccc3CN3CCN(c4ccccn4)CC3)s2)CC1,658
3,CC(C)n1c(=O)oc2cc(-c3noc(-c4ccc(C(F)(F)F)cc4)n3)ccc21,1310
4,CC(C)Cn1ccc2c(cc(C(=O)Nc3ccc(OC(F)(F)F)cc3)n2C)c1=O,1020
5,COC(=O)C1=C(NC(=O)COc2ccc(Cl)cc2Cl)CCS1,1110
6,CCC(=O)NC1Cc2ccccc2C(c2ccccc2)C1 (centres undefined),997
7,COC[C@@H]1CN(Cc2ccc3[nH]ccc3c2)C[C@H]1c1nc(C)no1,610
8,O=C1NCCN2CC3(CCN(C(=O)Nc4ccccc4)CC3)CC12 (centres undefined),570
9,CC1CCc2[nH]nc(C(N)=O)c2C1 (centres undefined),614
10,COc1ccc(-c2cc3n(n2)CCCN(C(=O)CCC(=O)c2ccc(F)cc2)C3)cc1,879
11,COc1ccccc1OCC1c2ccsc2CCN1C(=O)CN(CC1CC1)C(C)=O (centres undefined),828
12,CNC(=O)c1cc(Oc2ccc(NC(=O)Nc3ccc(Cl)c(C(F)(F)F)c3)cc2)ccn1,1190
13,Cc1cc(N2CCN(C(=O)c3ccc(Br)o3)CC2)nc(N2CCOCC2)n1,599
14,CCn1cnc2ccc(-c3noc(Cc4ccc(OC)cc4)n3)cc21,728
15,N#Cc1ccccc1CN1CCCC(N2CCCC2)C1=O (centres undefined),574
16,COc1ccc(Cn2c(=O)c3ccnn3c3ccc(C(=O)O)cc32)cc1,777
17,O=C(COc1ccccc1F)Nc1ccc2c(c1)CCC(=O)N2Cc1ccccc1,860
18,O=C(Cn1ncc2c(c1=O)N(C1CC1)C(=O)CS2)NCc1ccco1,648
19,CCOc1ccc(-c2noc(Cn3cnc4c(cnn4-c4ccc(OC)cc4)c3=O)n2)cc1OC,973
20,CN1c2ccc(F)cc2C(=O)NC12CCN(C(=O)Cc1ccc(Cl)cc1)CC2,795
21,O=S(=O)(CCc1noc(-c2ccc3c(c2)OCO3)n1)c1ccc(Cl)cc1,979
22,COc1ccc(CNC(=O)NCC2CCN(S(=O)(=O)C3CC3)CC2)cc1,662
23,Fc1cc(F)cc(-c2nnc(Cc3nc(-c4cccc(C(F)(F)F)c4)no3)o2)c1,851
24,O=C(NC1CCCCC1)c1ccc(CN2CCN(Cc3ccc(F)cc3)C(=O)C2=O)cc1,783
25,CCN1CCN(C(=S)Nc2ccc3nc(N4CCN(CC)CC4)cc(C)c3c2)CC1,519
26,CCCNC(=O)c1nc(N2CCSCC2)c2cnn(C)c2n1,719

row,SMILES,RP-LC retention time [s]
1,O=C(c1c2c(nn1C1CCS(=O)(=O)C1)CCC2)N1CCC(Cc2ccccc2)CC1 (centres undefined),849
2,CC(C)CNC(=O)C1CCN(c2cncnc2N2CCOCC2)CC1,582
3,Cc1cc2c(=O)n(CC(=O)Nc3cccc(C(F)(F)F)c3)ccc2s1,886
4,COc1ccc(C2(C(=O)N3CCN(C(=O)c4cc(-c5cccnc5)n[nH]4)CC3)CC2)cc1,621
5,CCc1cccc(NC(=O)Cn2c(C)nc3c(sc4nc(-c5ccccc5)ccc43)c2=O)c1,1170
6,O=C(OCc1cc(-c2cc3ccccc3o2)on1)c1ccccc1S(=O)(=O)C(F)F,1090
7,O=C(CN1CCC(c2nc(-c3cccs3)no2)CC1)NCc1ccccc1Cl,690
8,O=C(Nc1ccccc1F)N1CCCC1c1nc(-c2cccc(Cl)c2)no1 (centres undefined),1060
9,O=C(C(Cl)Cl)N1CC2CCC(CC2)C1,956
10,CCOc1ccccc1-n1ccn(Cc2nc(-c3ccc(OC)cc3)no2)c(=O)c1=O,846
11,CCCCNC(=O)C1CCN(Cc2cc3ccccc3n2Cc2ccccc2Cl)CC1,788
12,CS(=O)(=O)Nc1ccc(CC(=O)NC2CC2)cc1,585
13,Nc1ccc(SCC(=O)Nc2nc(-c3ccccc3)cs2)cc1,817
14,O=C1COc2ccc(-c3csc(NC(=O)c4ccco4)n3)cc2N1,741
15,O=C(NCC1CCCO1)C1CCN(c2nccnc2Sc2ccccc2)CC1 (centres undefined),796
16,O=C1CCCc2c1cc(C(=O)Nc1ccc(F)cc1F)c(=O)n2-c1ccc(F)cc1,785
17,O=C(NCc1ccc2c(c1)CCCN2C(=O)C1CCC1)c1cc(F)cc(F)c1,934
18,OCC1CN(C2CCC2)CC12CCN(Cc1ccccc1F)CC2 (centres undefined),591
19,O=C(NOC[C@H](O)CO)c1ccc(F)c(F)c1Nc1ccc(I)cc1F,886
20,Cc1ccccc1-c1nc2cnccn2c1NCCC(=O)NCc1cc(F)cc(F)c1,693
21,C=CCNC(=O)c1cn(-c2cc(-c3nc(C4CC4)no3)ccn2)cn1,800
22,CC(C)(C)C(O)CCNC(=O)NCc1ccc(Cl)cc1 (centres undefined),739
23,CCCN1CCN(C(=O)CCC(=O)N2CCc3c(c(C(=O)N4CCCC4)nn3C)C2)CC1,577
24,O=C(c1n[nH]c2c1CCCC2)N1CCCCC1,695
25,CCOC(=O)C(C)Sc1nnc2n1CCN2c1ccc(OC)cc1 (centres undefined),741
26,COc1ccccc1-c1nocc1CCC(=O)O,686

# Next, values leading:
row,RP-LC retention time [s],SMILES
1,563,CS(=O)(=O)NCC(c1ccsc1)N1CCc2ccccc2C1 (centres undefined)
2,688,CCOC(=O)c1nc(Nc2ccc(S(=O)(=O)Nc3ncccn3)cc2)c2ccccc2n1
3,612,O=C(Cn1c(=O)n(C2CCCCC2)c2ncccc21)NCCCN1CCOCC1
4,723,CC(C)NC(=O)C1CCCN(c2nc3ncn(CC(=O)N4CCc5ccccc5C4)c(=O)c3s2)C1 (centres undefined)
5,802,COc1ccc(NC(=O)N2CCC(n3cnc4ccc(Cl)cc4c3=O)CC2)cc1
6,1090,CCCn1cc(C(=O)NCCC2=CCCCC2)c2nn(-c3ccccc3)c(=O)c-2c1
7,702,Cc1ccc(CS(=O)(=O)Nc2ccc3c(c2)nc(-c2ccc(C(=O)NC(C)C)cc2)n3C)cc1
8,640,O=S(=O)(c1ccc2c(c1)-c1oncc1CO2)N1CCN(C2CCCCC2)CC1
9,639,COc1ccc(NC(=O)Cn2nc3nc(N4CCSCC4)ccn3c2=O)cc1OC
10,969,Cc1ccc(C(C)NC(=O)c2cccc(C3CCCN(C(=O)NC(C)C)C3)c2)c(C)c1 (centres undefined)
11,1180,COc1ccc(S(=O)(=O)N2CCCC(C(=O)Nc3ccc(Cl)c(Cl)c3)C2)cc1C (centres undefined)
12,677,Cc1nn(C)c(C)c1CCNC(=O)Nc1cccc(Br)c1
13,593,Cc1cccc2c(C(=O)NC3CC3)cc(N3CCCC3)nc12
14,787,Cc1cc(C)c2sc(N3CCN(C(=O)C4CCCN(S(C)(=O)=O)C4)CC3)nc2c1 (centres undefined)
15,757,CCc1ccccc1NC(=O)C1CCN(S(=O)(=O)c2ccc3c(c2)CCCC(=O)N3)CC1
16,606,Cc1nn(Cc2ccc(C(=O)N3CCN(c4ccccn4)CC3)cc2)c(C)c1S(=O)(=O)N(C)C
17,1110,Cc1sc(-c2cc(C(F)(F)F)on2)cc1S(=O)(=O)Nc1ccccc1F
18,907,Cc1ccc(NC(=O)c2sc(C)nc2C)c(Cl)c1
19,980,CCOC(=O)c1cc(C2CC2)nc2c1c(=O)n(CCc1c(C)noc1C)c(=O)n2C

row,RP-LC retention time [s],SMILES
1,787,Cc1ccc(NC(=O)C2CC(=O)N(c3ccc4c(c3)CCN4C(=O)C3CC3)C2)c(F)c1 (centres undefined)
2,754,Cc1nn(C)c(C)c1S(=O)(=O)N1CC=C(c2cn(C)c3ncccc23)CC1
3,1040,Cc1sc(-c2cc(C(F)(F)F)on2)cc1S(=O)(=O)N1CCOCC1
4,1290,CCc1ccc(S(=O)(=O)c2cnc(N3CCN(c4ccccc4Cl)CC3)nc2N)cc1
5,873,Cc1cc(C)c(S(=O)(=O)N2CCn3c(nn(CC4CC4)c3=O)C2)cc1C
6,829,CCCCC(=O)N1CCN(c2ccc(=O)n(-c3ccc(Cl)cc3)n2)CC1
7,595,CCN1C(=O)c2ccccc2S(=O)c2ccc(C(=O)N3CCN(c4ccccn4)CC3)cc21 (centres undefined)
8,887,Cc1nn(-c2ccc(-c3ccccc3)nn2)c(C)c1S(=O)(=O)N1CCOCC1
9,583,Cc1cc(CN2CCC(CNC(=O)Cc3ccccc3Cl)CC2)c(C)o1
10,638,COc1ccc(NC(=O)CN2CCc3c(c(=O)c4cc(C)ccc4n3C)C2)cc1Cl
11,814,Cc1cccc(C(=O)NCc2nn(C)c3ccccc23)c1
12,802,O=S(=O)(c1ccc(Cl)c(-c2nnc(-c3ccccc3)o2)c1)N1CCN(c2ccccn2)CC1
13,945,COc1ccc(NC(=O)N2CCCn3nc(-c4cccc(Cl)c4)cc3C2)cc1F
14,1030,COc1ccc(C)cc1NC(=O)C1CCN(S(C)(=O)=O)c2cc(C)ccc2O1 (centres undefined)
15,745,O=C(Cc1noc2ccccc12)N1CCN(c2cc(-c3ccccc3)ncn2)CC1
16,780,CCOC(=O)c1c(C)[nH]c(C(=O)N2CCC(CC(=O)NC(C)c3ccccc3)CC2)c1C (centres undefined)
17,666,CCCN1CCN(C(=O)C2CCN(S(=O)(=O)c3cc(-c4noc(CC)n4)sc3C)CC2)CC1
18,589,CN1CCN(CCCNC(=O)Cn2c(=O)c3cccn3c3ccc(F)cc32)CC1

# Source: the METLIN SMRT retention time set (Domingo-Almenara et al. 2019)
